Reference: ChEMBL document CHEMBL1157533 (J Med Chem, 2008)

Tests used:
[1] = Bioavailability in dog; type: ADME, organism-based, Canis lupus familiaris; conditions: in vivo
[2] = molecular target: Beta-1 adrenergic receptor (Homo sapiens, UniProt P08588); assay: Agonist activity at human recombinant beta-1 adrenergic receptor expressed in CHO cells assessed as cAMP accumulation by enzyme immuno assay; type: functional, cell-based
[3] = molecular target: Beta-3 adrenergic receptor (Homo sapiens, UniProt P13945); assay: Agonist activity at human recombinant beta3 adrenergic receptor expressed in CHO cells assessed as cAMP accumulation by enzyme immuno assay; type: functional, cell-based
Sequence of Beta-3 adrenergic receptor (Homo sapiens, UniProt P13945) (P13945 whole entry): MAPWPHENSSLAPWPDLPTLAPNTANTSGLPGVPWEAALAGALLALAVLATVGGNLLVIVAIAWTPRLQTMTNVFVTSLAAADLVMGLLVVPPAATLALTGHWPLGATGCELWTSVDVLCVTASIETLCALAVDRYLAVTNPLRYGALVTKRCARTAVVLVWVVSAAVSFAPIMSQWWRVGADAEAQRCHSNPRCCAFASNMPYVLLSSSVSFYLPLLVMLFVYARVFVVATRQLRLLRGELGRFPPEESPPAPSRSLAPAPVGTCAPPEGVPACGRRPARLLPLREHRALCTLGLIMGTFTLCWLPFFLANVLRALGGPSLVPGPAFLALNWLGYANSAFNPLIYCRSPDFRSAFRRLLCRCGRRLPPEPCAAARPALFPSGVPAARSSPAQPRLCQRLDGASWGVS

[4] = molecular target: Beta-2 adrenergic receptor (Homo sapiens, UniProt P07550); assay: Agonist activity at human recombinant beta2 adrenergic receptor expressed in CHO cells assessed as cAMP accumulation by enzyme immuno assay; type: functional, cell-based
Sequence of Beta-2 adrenergic receptor (P07550 whole entry): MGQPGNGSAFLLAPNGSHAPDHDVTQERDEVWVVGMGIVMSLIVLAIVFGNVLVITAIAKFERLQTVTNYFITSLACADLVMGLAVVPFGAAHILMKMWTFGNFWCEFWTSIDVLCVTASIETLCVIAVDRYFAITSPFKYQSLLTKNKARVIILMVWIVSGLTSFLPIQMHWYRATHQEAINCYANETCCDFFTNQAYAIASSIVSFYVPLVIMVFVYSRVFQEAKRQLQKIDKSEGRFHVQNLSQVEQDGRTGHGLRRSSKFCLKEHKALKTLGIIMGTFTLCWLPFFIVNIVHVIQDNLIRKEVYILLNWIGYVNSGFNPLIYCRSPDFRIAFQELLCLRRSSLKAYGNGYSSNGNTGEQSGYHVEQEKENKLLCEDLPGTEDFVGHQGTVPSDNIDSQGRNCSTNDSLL

[5] = Cmax in dog at 0.32 mg/kg, po; type: ADME, organism-based, Canis lupus familiaris; parameters: dose 0.32 mg/kg, route oral; conditions: in vivo
[6] = AUC (0 to 24 hrs) in dog at 0.32 mg/kg, po; type: ADME, organism-based, Canis lupus familiaris; parameters: time < 24 hr, dose 0.32 mg/kg, route oral; conditions: plasma
[7] = Bioavailability in dog at 0.32 mg/kg, po; type: ADME, organism-based, Canis lupus familiaris; conditions: in vivo
[8] = Total clearance in dog at 0.32 mg/kg, iv; type: ADME, organism-based, Canis lupus familiaris; parameters: dose 0.32 mg/kg, route intravenous; conditions: in vivo
[9] = Cmax in rat at 0.26 mg/kg, po by cassette assay; type: ADME, organism-based; parameters: dose 0.26 mg/kg, route oral; conditions: in vivo
[10] = Cmax in monkey at 0.28 mg/kg, po by cassette assay; type: ADME, organism-based, Macaca mulatta; parameters: dose 0.28 mg/kg, route oral; conditions: rhesus monkey, in vivo
[11] = AUC (0 to 24 hrs) in rat at 0.26 mg/kg, po by cassette assay; type: ADME, organism-based; parameters: time < 24 hr, dose 0.26 mg/kg, route oral; conditions: plasma
[12] = AUC (0 to 24 hrs) in monkey at 0.28 mg/kg, po by cassette assay; type: ADME, organism-based, Macaca mulatta; parameters: time < 24 hr, dose 0.28 mg/kg, route oral; conditions: rhesus monkey, plasma
[13] = Bioavailability in rat at 0.26 mg/kg, po by cassette assay; type: ADME, organism-based; conditions: in vivo
[14] = Bioavailability in monkey at 0.28 mg/kg, po by cassette assay; type: ADME, organism-based, Macaca mulatta; conditions: rhesus monkey, in vivo
[15] = Terminal half life in rat plasma at 0.26 mg/kg, iv by cassette assay; type: ADME, organism-based; parameters: dose 0.26 mg/kg, route intravenous; conditions: read-out: beta t1/2 (converted)
[16] = Terminal half life in monkey plasma at 0.28 mg/kg, iv by cassette assay; type: ADME, organism-based, Macaca mulatta; parameters: dose 0.28 mg/kg, route intravenous; conditions: rhesus monkey, read-out: beta t1/2 (converted)
[17] = Total clearance in rat at 0.26 mg/kg, iv by cassette assay; type: ADME, organism-based; parameters: dose 0.26 mg/kg, route intravenous; conditions: in vivo
[18] = Total clearance in monkey at 0.28 mg/kg, iv by cassette assay; type: ADME, organism-based, Macaca mulatta; parameters: dose 0.28 mg/kg, route intravenous; conditions: rhesus monkey, in vivo
[19] = molecular target: Beta-3 adrenergic receptor (Canis lupus familiaris, UniProt O02662); assay: Agonist activity at dog recombinant beta3 adrenergic receptor expressed in CHO cells assessed as cAMP accumulation by enzyme immuno assay; type: functional, cell-based
Sequence of Beta-3 adrenergic receptor (Canis lupus familiaris, UniProt O02662) (O02662 whole entry): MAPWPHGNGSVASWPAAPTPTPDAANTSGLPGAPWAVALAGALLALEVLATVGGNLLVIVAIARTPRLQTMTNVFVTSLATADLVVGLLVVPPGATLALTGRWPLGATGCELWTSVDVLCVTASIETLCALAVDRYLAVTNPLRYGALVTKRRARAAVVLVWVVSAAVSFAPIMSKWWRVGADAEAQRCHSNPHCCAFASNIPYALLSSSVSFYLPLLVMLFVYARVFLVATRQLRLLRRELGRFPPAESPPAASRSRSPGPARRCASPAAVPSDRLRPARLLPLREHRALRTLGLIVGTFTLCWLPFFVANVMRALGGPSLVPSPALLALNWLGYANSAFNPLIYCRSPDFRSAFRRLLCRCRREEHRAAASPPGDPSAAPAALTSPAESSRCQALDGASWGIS

[20] = Protein binding in Beagle dog serum; type: ADME, cell-free, Canis lupus familiaris; conditions: read-out: PPB (converted)
[21] = Bioavailability in rat at 1.0 mg/kg, po; type: ADME, organism-based; conditions: in vivo
[22] = Cmax in rat at 1.0 mg/kg, po; type: ADME, organism-based; parameters: dose 1 mg/kg, route oral; conditions: in vivo
[23] = Cmax in monkey at 0.27 mg/kg, po by cassette assay; type: ADME, organism-based, Macaca mulatta; parameters: dose 0.27 mg/kg, route oral; conditions: rhesus monkey, in vivo
[24] = AUC (0 to 24 hrs) in rat at 1.0 mg/kg, po; type: ADME, organism-based; parameters: time < 24 hr, dose 1 mg/kg, route oral; conditions: plasma
[25] = AUC (0 to 24 hrs) in monkey at 0.27 mg/kg, po by cassette assay; type: ADME, organism-based, Macaca mulatta; parameters: time < 24 hr, dose 0.27 mg/kg, route oral; conditions: rhesus monkey, plasma
[26] = Bioavailability in monkey at 0.27 mg/kg, po by cassette assay; type: ADME, organism-based, Macaca mulatta; conditions: rhesus monkey, in vivo
[27] = Terminal half life in rat plasma at 1.0 mg/kg, iv; type: ADME, organism-based; parameters: dose 1 mg/kg, route intravenous; conditions: read-out: beta t1/2 (converted)
[28] = Terminal half life in dog plasma at 0.32 mg/kg, iv; type: ADME, organism-based, Canis lupus familiaris; parameters: dose 0.32 mg/kg, route intravenous; conditions: read-out: beta t1/2 (converted)
[29] = Terminal half life in monkey plasma at 0.27 mg/kg, iv by cassette assay; type: ADME, organism-based, Macaca mulatta; parameters: dose 0.27 mg/kg, route intravenous; conditions: rhesus monkey, read-out: beta t1/2 (converted)
[30] = Total clearance in rat at 1.0 mg/kg, iv; type: ADME, organism-based; parameters: dose 1 mg/kg, route intravenous; conditions: in vivo
[31] = Total clearance in monkey at 0.27 mg/kg, iv by cassette assay; type: ADME, organism-based, Macaca mulatta; parameters: dose 0.27 mg/kg, route intravenous; conditions: rhesus monkey, in vivo
[32] = organism: Canis familiaris; assay: cells; conditions: Canis lupus familiaris, 3 h
Description: Inhibition of carbachol-induced increase in intravesical pressure in intraduodenally dosed Beagle dog OAB model for 180 mins

[33] = Cmax in dog at 0.1 mg/kg, po; type: ADME, organism-based, Canis lupus familiaris; parameters: dose 0.1 mg/kg, route oral; conditions: in vivo
[34] = Bioavailability in dog at 0.1 mg/kg, po; type: ADME, organism-based, Canis lupus familiaris; conditions: in vivo
[35] = Total clearance in dog at 0.1 mg/kg, iv; type: ADME, organism-based, Canis lupus familiaris; parameters: dose 0.1 mg/kg, route intravenous; conditions: in vivo
[36] = Cmax in monkey at 0.30 mg/kg, po by cassette assay; type: ADME, organism-based, Macaca mulatta; parameters: dose 0.3 mg/kg, route oral; conditions: rhesus monkey, in vivo, 0.3 mg/kg
[37] = AUC (0 to 24 hrs) in monkey at 0.30 mg/kg, po by cassette assay; type: ADME, organism-based, Macaca mulatta; parameters: time < 24 hr, dose 0.3 mg/kg, route oral; conditions: rhesus monkey, plasma, 0.3 mg/kg
[38] = Bioavailability in monkey at 0.30 mg/kg, po by cassette assay; type: ADME, organism-based, Macaca mulatta; conditions: rhesus monkey, in vivo, 0.3 mg/kg
[39] = Total clearance in monkey at 0.30 mg/kg, iv by cassette assay; type: ADME, organism-based, Macaca mulatta; parameters: dose 0.3 mg/kg, route intravenous; conditions: rhesus monkey, in vivo, 0.3 mg/kg
[40] = AUC (0 to 24 hrs) in dog at 0.1 mg/kg, po; type: ADME, organism-based, Canis lupus familiaris; parameters: time < 24 hr, dose 0.1 mg/kg, route oral; conditions: plasma
[41] = Metabolic stability assessed as intrinsic clearance in dog liver microsome in presence of NADPH-generating system; type: ADME, Canis lupus familiaris; conditions: liver microsomes
[42] = Metabolic stability assessed as intrinsic clearance in rat liver microsome in presence of NADPH-generating system; type: ADME; conditions: liver microsomes
[43] = Metabolic stability assessed as intrinsic clearance in monkey liver microsome in presence of NADPH-generating system; type: ADME, Macaca mulatta; conditions: rhesus monkey, liver microsomes
[44] = Metabolic stability assessed as intrinsic clearance in human liver microsome in presence of NADPH-generating system; type: ADME; conditions: liver microsomes
[45] = AUC (0 to 24 hrs) in monkey at 0.32 mg/kg, po by cassette assay; type: ADME, organism-based, Macaca mulatta; parameters: time < 24 hr, dose 0.32 mg/kg, route oral; conditions: rhesus monkey, plasma
[46] = Bioavailability in monkey at 0.32 mg/kg, po by cassette assay; type: ADME, organism-based, Macaca mulatta; conditions: rhesus monkey, in vivo
[47] = Terminal half life in monkey plasma at 0.32 mg/kg, iv by cassette assay; type: ADME, organism-based, Macaca mulatta; parameters: dose 0.32 mg/kg, route intravenous; conditions: rhesus monkey, read-out: beta t1/2 (converted)
[48] = Total clearance in monkey at 0.32 mg/kg, iv by cassette assay; type: ADME, organism-based, Macaca mulatta; parameters: dose 0.32 mg/kg, route intravenous; conditions: rhesus monkey, in vivo

Sequence of Beta-1 adrenergic receptor (P08588 whole entry): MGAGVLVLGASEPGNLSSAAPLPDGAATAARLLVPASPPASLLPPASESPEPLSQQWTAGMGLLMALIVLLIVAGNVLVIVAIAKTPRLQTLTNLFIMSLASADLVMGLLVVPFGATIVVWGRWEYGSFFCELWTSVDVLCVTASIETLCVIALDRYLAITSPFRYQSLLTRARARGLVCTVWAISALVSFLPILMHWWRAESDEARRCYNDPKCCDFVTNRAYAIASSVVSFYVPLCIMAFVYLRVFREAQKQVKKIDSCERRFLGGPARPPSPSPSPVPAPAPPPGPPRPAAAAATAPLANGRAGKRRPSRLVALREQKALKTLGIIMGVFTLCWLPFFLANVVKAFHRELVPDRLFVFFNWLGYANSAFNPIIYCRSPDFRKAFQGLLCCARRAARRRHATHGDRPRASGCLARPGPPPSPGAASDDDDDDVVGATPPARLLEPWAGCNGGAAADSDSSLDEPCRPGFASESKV

Row | SMILES | EC50 [2] [nM] | EC50 [3] [nM] | EC50 [4] [µM] | Cmax [5] [ng/mL] | AUC(0-t) at 24 h [6] [ng·h/mL] | bioavailability [7] [%] | clearance [8] [mL/min/kg] | EC50 [19] [nM] | fraction unbound [20] | bioavailability [21] [%] | Cmax [22] [ng/mL] | AUC(0-t) at 24 h [24] [ng·h/mL] | half-life [27] [min] | half-life [28] [min] | clearance [30] [mL/min/kg] | EC50 [32] [nM] | ED50 [32] [mg/kg] | also measured
1 | COc1cc(-c2ccc(CCNC[C@H](O)c3cccc(Cl)c3)cc2)ccc1C(=O)O | – | – | – | – | – | – | – | – | – | – | – | – | – | – | – | – | – | bioavailability [1]: 58%
2 | O=C(O)c1ccc(-c2ccc(CCNC[C@H](O)c3cccnc3)cc2)cc1OC1CCCCC1 | 480 | 0.26 | > 10 | 11.4 | 58.1 | 60 | 47.7 | 1.3 | 0.1 | – | – | – | – | – | – | – | – | Cmax [9]: 72.4 ng/mL; Cmax [10]: 18.6 ng/mL; AUC(0-t) at 24 h [11]: 245 ng·h/mL; AUC(0-t) at 24 h [12]: 153 ng·h/mL; bioavailability [13]: 82.5%; bioavailability [14]: 10.7%; half-life [15]: 198 min; half-life [16]: 618 min; clearance [17]: 15.8 mL/min/kg; clearance [18]: 3.4 mL/min/kg
3 | CC(C)Oc1cc(-c2ccc(CCNC[C@H](O)c3cccnc3)cc2)ccc1C(=O)O | > 1000 | 1.5 | > 10 | 27 | 461 | 63.2 | 6.4 | 11 | 0.23 | 61.5 | 172 | 548 | 210 | 594 | 16 | 7.8 | 0.0284 | Cmax [23]: 11 ng/mL; AUC(0-t) at 24 h [25]: 77.5 ng·h/mL; bioavailability [26]: 25.7%; half-life [29]: 132 min; clearance [31]: 22.8 mL/min/kg
4 | CCCOc1cc(-c2ccc(C[C@@H](C)NC[C@H](O)c3cccnc3)cc2)ccc1C(=O)O | 190 | 0.064 | > 1 | – | – | – | – | 0.51 | 0.18 | – | – | – | – | – | – | 0.28 | 0.0048 | Cmax [33]: 3 ng/mL; bioavailability [34]: 54.9%; clearance [35]: 24.3 mL/min/kg; Cmax [36]: 8.2 ng/mL; AUC(0-t) at 24 h [37]: 65.2 ng·h/mL; bioavailability [38]: 57.2%; clearance [39]: 47 mL/min/kg; AUC(0-t) at 24 h [40]: 35.5 ng·h/mL
5 | CC(C)Cc1cc(-c2ccc(CCNC[C@H](O)c3ccc(N)nc3)cc2)ccc1C(=O)O | 150 | 0.066 | 3.2 | 49.1 | 177 | 27 | 7.9 | 3.2 | 0.2 | 12.4 | 21.9 | 208 | 114 | 456 | 8.5 | 1.8 | 0.0161 | CLint scaled [41]: < 2 mL/min/kg; CLint scaled [42]: < 2 mL/min/kg; CLint scaled [43]: 3.8 mL/min/kg; CLint scaled [44]: 2.2 mL/min/kg; AUC(0-t) at 24 h [45]: 90.8 ng·h/mL; bioavailability [46]: 48.6%; half-life [47]: 354 min; clearance [48]: 24.3 mL/min/kg
